Format in all cases: in vivo
In data set [1] the test system is rats. Description: Overall sensory and motor blockade of the hindlimbs after intrathecal injection. The note with it: rat. Here is the method: (§1) Rats were tested before 15 minutes through 240 minutes after intrathecal injection of 5 nmoles (in 10 μl) of 6-[2-(1(2)H-tetrazole-5-yl)ethyl]decahydroisoquinolone-3-carboxylic acid. Sensory function was tested at the hindpaw using withdrawal response to pinprick and withdrawal to pinch with a sharp forceps. Motor performance (ambulation, the placing reflex and Rotarod time), blood pressure and heart rate was also evaluated. Some tests were repeated the next day. Responses after 6-[2-(1(2)H-tetrazole-5-yl)ethyl]decahydroisoquinolone-3-carboxylic acid were compared to injection of 40 μl of bupivacaine, 0.75%. Pinprick responses at the forepaw, chest, abdomen, hindleg and hindpaw were also examined after intrathecal 6-[2-(1(2)H-tetrazole-5-yl)ethyl]decahydroisoquinolone-3-carboxylic acid.
(§2) Rats were anesthetized with halothane. The lumbar region was shaved, prepared with povidone-iodine, made kyphotic and incised 2 to 3 cm longitudinally in the midline at the level of the iliac crests. The space between the 5th and 6th lumbar vertebrae was punctured with 23G hypodermic needle and a 32G PU catheter (10 cm length, OD 0.0107 inches and ID 0.005 inches) reinforced with a Teflon coated stainless steel stylet (0.003 inches) was advanced through the needle cranially. The needle and the stylet were removed and the catheter withdrawn so that 6.5-7 cm extended outside of the lumbar masculature. The catheter was fixed to the fascia, sutured, inserted into an 8 cm length of PE-10 tubing and secured with glue covered with epoxy. The catheter was tunneled under the skin to the cervical region, flushed with saline and sealed with a cautery pen. The dead space of the catheter was 4.5 to 5 μl. The skin was closed and the rat was allowed to recover from anesthesia for 2-3 days.
(§3) The dose and volume of drugs injected intrathecally were determined from the dose required to produce hindlimb sensory and motor loss in preliminary experiments. Bupivacaine HCl (0.75% in 8.25% dextrose for spinal injection) was purchased from Abbott Laboratories (Chicago, Ill.). The intrathecal injection volume was 40 μl. The compound was dissolved in 10% dextrose and water. The injection volume was 1 ul. All intrathecal drug injections were followed by a flush of 10 μl preservative-free saline.

For data set [2], the system named is rats. Nature of the data set: Placing reflex (cumulative placing score) after intrathecal injection. The following applies: rat; for Cumulative Placing Score: median (range). Here is the method: as §1, §2
(§4) Rats were trained over a two-day period. Training began by placing the rat on a Rotarod (Stoelting, Wood Dale, Ill.) that was fixed for three minutes. Then, three series of trials separated by 2-3 hours were performed. During each trial, the rat was placed on the Rotarod accelerating for the first 20 s then at a constant rate of approximately 5 rpm, until a 180 s cut off time. If the rat fell at any time during the initial trial, the trial was repeated. Each rat was allowed three attempts per trial. On the second day, the same procedure was repeated, though acceleration was sustained for 120 s to approximately 12 rpm, with a 150 second cut off time. On day 3, the test day, rats are again placed on the Rotarod and accelerated for 120 seconds to 12 rpm with the cutoff time of 150 seconds. Each rat was permitted 4 attempts at 15 minute intervals. Those successful in 2 of the 4 attempts continued in the protocol, and the average of the 4 attempts was considered the baseline (pre). After a two-hour period, the test drug was administered and rats were examined once on the Rotarod at 30, 60, 90, 120, 180, and 240 minutes. […] Then the placing reflex was tested. Rats were placed on a table and the dorsum of either hindpaw was drawn across the edge of the table; this elicits a lifting of the paw onto the surface of the table (2=normal; 1=delay of 1-2 sec.; 0=more than 2 sec.). This test was performed 3 times for each hindlimb after each ambulation test. The sum of the three trials on both paws were recorded ([…]).
as §3

For data set [3], the system named is rats. Description: Rotarod performance after intrathecal injection. The note with it: rat; for Rotarod Time: mean ± SD. Here is the method:
as §1, §2
as §4, with “(pre).” for “(pre). After a two-hour period, the test drug was administered and rats were examined once on the Rotarod at 30, 60, 90, 120, 180, and 240 minutes.”
as §3
For orientation: In the rotarod test animals must keep their balance on a rotating rod.

The subject of data set [4] is rats. Description: Withdrawal response to pinprick at the hindpaw after intrathecal injection. The following applies: rat. The method, then: as §1, §2
First, the withdrawal response to pinprick was tested on each hindpaw. A 5 mm long tip of a safety pin attached to a von Frey filament (520 mN) was applied once to the plantar aspect of each hindpaw. Either a withdrawal response or a reaction occurred (1=positive response) or no withdrawal (0=no response). The sum of the scores (0, 1 or 2) for each rat was recorded. If no response or reaction was elicited by pinprick, a serrated dissecting forceps was used to pinch the skin of the plantar region for 2-3 sec. Again, withdrawal or reaction was considered a positive response (score=1) and the absence of both a negative test (score=0). […] Because the response to pinch was quite vigorous and rats were subjected to repeated tests in a single day, only rats unresponsive to pinprick were tested for pinch. If pinprick evoked a response, pinch was designated as positive also. The sum of the scores after pinch (0, 1 or 2) was recorded.
as §3

Data set [5] concerns rats. Description: Mean arterial pressure and heart rate via carotid artery catheter after intrathecal injection. The following applies: rat. Here is the method: as §1
For blood pressure measurement, the paratracheal region was shaved, prepared with povidone-iodine, and incised 1.5-2 cm longitudinally lateral to the midline. The carotid artery was isolated and cannulated with PE-50 tubing that had been stretched by exposing the distal end to heat. The catheter secured and tunneled subcutaneously to the posterior neck region. The skin was closed with 4-0 silk and the rat was allowed to recover for 2-3 days before experiments began.
The mean arterial pressure and heart rate were measured using the carotid artery catheter attached to a pressure transducer relayed to a polygraph and preamplifier (Grass, Quincy, Mass). Heart rate was intermittently measured by counting the arterial pulse wave for 30 seconds.
as §3

Setting [6] is: bupivacaine 0.75% 40 μl intrathecal.
The mark [7] stands for this setting: Bupivacaine 0.75% 40 μl IT, n=8, 15 min.
The mark [8] stands for this setting: Bupivacaine 0.75% 40 μl IT, n=8, 30 min.
[9] abbreviates: Bupivacaine 0.75% 40 μl IT, n=8, 60 min.
Setting [10] is: Bupivacaine 0.75% 40 μl IT, n=8, 90 min.
Setting [11] is: Bupivacaine 0.75% 40 μl IT, n=8, 120 min.
Setting [12] is: Bupivacaine 0.75% 40 μl IT, n=8, 180 min.
[13] abbreviates: Bupivacaine 0.75% 40 μl IT, n=8, 240 min.
The mark [14] stands for this setting: Bupivacaine 0.75% 40 μl IT, n=8, 24 hrs.
Where [15] appears, read: Bupivacaine 0.75% 40 μl IT, n=8, Pre (before drug injection).
Setting [16] is: bupivacaine 0.75% 40 μl intrathecal, fifteen minutes after administration.
Where [17] appears, read: LY293558 5 nmoles IT, n=8, 24 hrs.
Setting [18] is: LY293558 5 nmoles IT, n=8, Pre (before drug injection).

SMILES strings stand for the structures. “Also recorded” adds a separate entry of the source. Where a name gives a salt, the structure may show the parent alone. Marks after values point to notes of the source that are not given here. A value given as a limit tells only on which side of the number the result lay.

In the case of `CCCCN1CCCCC1C(=O)Nc1c(C)cccc1C` (stereo not shown) [Bupivacaine, Bupivacaine HCl], the “sensory and motor responses” value in the data set with rats [1] (setting [6]) is “decreased”. The “Cumulative Placing Score” value is 0 (0-0)* with rats [2] (setting [7]); 6 (0-12)* in the data set on rats [2] (setting [8]); 12 (1-12) in the data set with rats [2] (setting [9]); 12 (0-12) with rats [2] (setting [10]); 12 (12-12) with rats [2] (setting [11]); 12 (12-12) in the data set with rats [2] (setting [12]). The “Cumulative Placing Score” value in the data set with rats [2] (setting [13]), with rats [2] (setting [14]) and in the data set on rats [2] (setting [15]) was 12 (12-12) each time. For the same compound, the “placing reflex decreased for (P<0.05 vs Pre)” value in the data set with rats [2] (setting [6]) was 30 min. The “Rotarod Time” value was 5 ± 6 s in the data set on rats [3] (setting [7]); 49 ± 42 s with rats [3] (setting [8]); 135 ± 43 s in the data set with rats [3] (setting [9]); 136 ± 39 s in the data set on rats [3] (setting [10]); 137 ± 26 s with rats [3] (setting [11]); 142 ± 15 s in the data set with rats [3] (setting [12]). Besides, the “Rotarod Time” value in the data set on rats [3] (setting [13]) is 149 ± 2 s; with rats [3] (setting [14]), 150 ± 0 s; with rats [3] (setting [15]), 146 ± 8 s. The “rotorod performance decreased for (P<0.05 vs Pre)” value in the data set with rats [3] (setting [6]) stood at 30 min. In the data set on rats [4] (setting [6]), the “time at which all rats had recovered withdrawal to pinprick” value amounted to 60 min. The “withdrawal to pinprick vs Pre” value in the data set on rats [4] (bupivacaine 0.75% 40 μl intrathecal, 15 minutes after injection, not eliminated in all tests) is listed as “reduced”. Moreover, the “time by which blood pressure and heart rate changes resolved” value in the data set with rats [5] (setting [6]) is ≤ 30 min. In addition, the “heart rate change vs Pre” value with rats [5] (setting [16]) was “increased”. In addition, in the data set on rats [5] (setting [16]), the “mean arterial pressure change vs Pre” value is reported as “decreased”.
Consider `O=C(O)C1CC2CC(CCc3nnn[nH]3)CCC2CN1` (stereo not shown) [LY293558, 6-[2-(1(2)H-tetrazole-5-yl)ethyl]decahydroisoquinolone-3-carboxylic acid], for which the “effects compared with bupivacaine” value in the data set with rats [1] (5 nmoles intrathecal vs bupivacaine 0.75% 40 μl) was “more pronounced and sustained than bupivacaine; also recorded: more pronounced and prolonged”. Also, the “greater motor deficits than bupivacaine (P<0.05) in all tests of motor function, through” value with rats [1] (5 nmoles intrathecal vs bupivacaine, from 30 minutes) came to 3 h. The “sensory and motor blockade of the hindlimbs” value in the data set on rats [1] (5 nmoles intrathecal) was “reversible, sustained sensory and motor blockade”. Besides, the “sensory and motor responses blocked through” value in the data set with rats [1] (5 nmoles intrathecal) is 180 min. Further, in the data set on rats [1] (5 nmoles intrathecal, following day), the “recovery of sensory and motor responses the following day” value is reported as “complete recovery”. Moreover, the “placing reflex completely eliminated in all rats through” value in the data set with rats [2] (5 nmoles intrathecal) turned out to be 90 min. Also, the “placing reflex impaired through (P<0.05 vs Pre)” value in the data set with rats [2] (5 nmoles intrathecal) was found to be 3 h. Further, the “Cumulative Placing Score” value in the data set with rats [2] (setting [17]) and in the data set on rats [2] (setting [18]) was 12 (12-12) in each case. The “Rotorod performance decreased through (P<0.05 vs Pre)” value in the data set with rats [3] (5 nmoles intrathecal) turned out to be 4 h. The “recovery of Rotorod performance the next day” value in the data set with rats [3] (5 nmoles intrathecal, next day) is recorded as “full recovery”. Also, the “Rotarod Time” value with rats [3] (LY293558 5 nmoles IT, n=8, 15 min) was found to be 3 ± 4 s; with rats [3] (LY293558 5 nmoles IT, n=8, 240 min), 115 ± 42 s; with rats [3] (setting [17]), 149 ± 5 s; with rats [3] (setting [18]), 144 ± 10 s. Further, in the data set with rats [4] (5 nmoles intrathecal vs bupivacaine), the “greater inhibition of pinprick than bupivacaine (P<0.05) through” value is 3 h. In addition, the “rats failed to respond to pin prick through (P<0.05 vs Pre)” value in the data set with rats [4] (5 nmoles intrathecal, from 15 minutes) was determined as 2 h. Further, the “recovery of pinprick response the next day” value with rats [4] (5 nmoles intrathecal, next day) is recorded as “recovered fully”. Besides, the “change in blood pressure” value with rats [5] (5 nmoles intrathecal) was “No change; also recorded: did not change”. Further, in the data set on rats [5] (5 nmoles intrathecal), the “change in heart rate” value is “No change; also recorded: did not change”.

These data come from patent publication US20030130308A1, “Drugs for spinal anesthesia” (priority 2001, published 2003).
